These results are taken from patent US4532255A, “Amidine compounds and anticomplement agent comprising same” (Torii & Co., Ltd., priority 1980, dated 1985).

Each structure is given as a SMILES string. Where only a bound is given, the exact number is not on record here.

One assay concerns the target Thrombin (Homo sapiens, UniProt P00734). Description: biochemical. The following applies: for IC50: molar concentration inhibiting 50% of TAME hydrolysis, read-out: Thrombin ID50; for inhibition at 10 µM: at 1×10^-5 M, read-out: Thrombin percentage inhibition. On the procedure: (§1) The anti-trypsin, anti-plasmin, anti-kallikrein and anti-thrombin activities were determined according to the method of Muramatsu et al. [M. Muramatsu, T. Onishi, S. Makino, Y. Hayashi and S. Fujii, J. of Biochem., 58, 214 (1965)]. The data summarized in Table 1 are expressed in terms of molar concentration (ID50) of the test compound which inhibits 50% of the activity of each enzyme to hydrolyze TAME (tosylalginine methyl ester). The compound No. corresponds to the compound number shown in Examples.

In a further assay the target is T1, C1s (Homo sapiens, UniProt P09871).
T1 sequence (P09871 438-688 limits assumed): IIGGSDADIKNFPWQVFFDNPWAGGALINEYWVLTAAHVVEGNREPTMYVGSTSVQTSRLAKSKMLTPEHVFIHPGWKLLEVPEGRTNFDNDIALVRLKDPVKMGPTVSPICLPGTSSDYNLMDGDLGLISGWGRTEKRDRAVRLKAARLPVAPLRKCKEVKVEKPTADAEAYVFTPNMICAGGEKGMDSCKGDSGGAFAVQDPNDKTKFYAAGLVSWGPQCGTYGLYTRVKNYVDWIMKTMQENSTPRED
T1 sequence (P09871 16-437 partner limits assumed): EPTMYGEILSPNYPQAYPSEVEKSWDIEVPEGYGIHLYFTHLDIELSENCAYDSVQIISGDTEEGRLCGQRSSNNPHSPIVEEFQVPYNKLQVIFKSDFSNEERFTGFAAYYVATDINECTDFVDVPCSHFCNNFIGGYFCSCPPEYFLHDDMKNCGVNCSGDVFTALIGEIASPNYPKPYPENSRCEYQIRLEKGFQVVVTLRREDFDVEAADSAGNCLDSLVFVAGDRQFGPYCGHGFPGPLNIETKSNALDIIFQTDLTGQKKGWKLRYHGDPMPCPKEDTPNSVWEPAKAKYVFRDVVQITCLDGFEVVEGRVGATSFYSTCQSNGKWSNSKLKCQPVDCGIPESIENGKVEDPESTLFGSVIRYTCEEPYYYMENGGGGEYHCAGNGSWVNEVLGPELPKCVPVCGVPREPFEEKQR
Kind of assay: biochemical. The following applies: ATEE hydrolysis; read-out: Anti-C1 activity, C1s ID50. On the procedure:
The anti-Cl esterase (Clr, Cls) activity was determined according to the method of Okamura et al. [K. Okamura, M. Muramatsu and S. Fujii, Biochem. Biophys. […] The figures in Table 2 have the following meanings:
Cls: Molar concentration of the test compound which inhibits 50% of the ability of Cls to hydrolyse ATEE (acetyltyrosin ethyl ester).

Assay [1] concerns complement mediated hemolysis. Description: Inhibition of complement mediated hemolysis. It is filed as cell-based.
Experimental: The principle of this method is based on the fact that hemolysis is caused by the activation of complement, when the latter is added to a complex (immune complex) of erythrocytes and the antibody thereof. The degree of hemolysis varies in proportion to the amount of complement added. Therefore, when a known amount of complement admixed with a C1 esterase inhibitor is used, the hemolysis must be suppressed in proportion to the inhibitory activity.
The target of a further assay is T2, Trypsin (Bos taurus, UniProt P00760).
T2 sequence (P00760 24-246): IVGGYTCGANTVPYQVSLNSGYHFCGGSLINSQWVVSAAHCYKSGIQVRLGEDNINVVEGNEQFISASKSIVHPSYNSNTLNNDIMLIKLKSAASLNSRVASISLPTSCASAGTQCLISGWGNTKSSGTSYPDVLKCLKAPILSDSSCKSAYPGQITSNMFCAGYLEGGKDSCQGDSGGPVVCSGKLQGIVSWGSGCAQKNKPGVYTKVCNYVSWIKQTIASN
Kind of assay: Anti-trypsin activity (hydrolysis of TAME). The format is biochemical. The following applies: for IC50: molar concentration inhibiting 50% of TAME hydrolysis, read-out: Trypsin ID50. On the procedure: (§2) The anti-trypsin, anti-plasmin, anti-kallikrein and anti-thrombin activities were determined according to the method of Muramatsu et al. [M. Muramatsu, T. Onishi, S. Makino, Y. Hayashi and S. Fujii, J. of Biochem., 58, 214 (1965)]. […] The compound No. corresponds to the compound number shown in Examples.

Another assay concerns Kallikrein. Kind of assay: Anti-kallikrein activity (hydrolysis of TAME). The format is biochemical. The following applies: molar concentration inhibiting 50% of TAME hydrolysis; read-out: Kallikrein ID50. As to the method: as §1
Another assay addresses Plasmin (Homo sapiens, UniProt P00747). Kind of assay: Anti-plasmin activity (hydrolysis of TAME). The format is biochemical. The note with it: molar concentration inhibiting 50% of TAME hydrolysis; read-out: Plasmin ID50. As to the method:
as §2

Another assay addresses T3, C1r (Homo sapiens, UniProt P00736).
T3 sequence (P00736 464-705 limits assumed): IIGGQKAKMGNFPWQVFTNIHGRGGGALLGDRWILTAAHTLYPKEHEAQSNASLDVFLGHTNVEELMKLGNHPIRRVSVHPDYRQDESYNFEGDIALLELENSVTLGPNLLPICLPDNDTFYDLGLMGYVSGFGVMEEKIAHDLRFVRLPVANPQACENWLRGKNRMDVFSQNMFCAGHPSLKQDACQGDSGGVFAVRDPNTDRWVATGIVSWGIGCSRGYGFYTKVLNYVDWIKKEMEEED
T3 sequence (P00736 18-463 partner limits assumed): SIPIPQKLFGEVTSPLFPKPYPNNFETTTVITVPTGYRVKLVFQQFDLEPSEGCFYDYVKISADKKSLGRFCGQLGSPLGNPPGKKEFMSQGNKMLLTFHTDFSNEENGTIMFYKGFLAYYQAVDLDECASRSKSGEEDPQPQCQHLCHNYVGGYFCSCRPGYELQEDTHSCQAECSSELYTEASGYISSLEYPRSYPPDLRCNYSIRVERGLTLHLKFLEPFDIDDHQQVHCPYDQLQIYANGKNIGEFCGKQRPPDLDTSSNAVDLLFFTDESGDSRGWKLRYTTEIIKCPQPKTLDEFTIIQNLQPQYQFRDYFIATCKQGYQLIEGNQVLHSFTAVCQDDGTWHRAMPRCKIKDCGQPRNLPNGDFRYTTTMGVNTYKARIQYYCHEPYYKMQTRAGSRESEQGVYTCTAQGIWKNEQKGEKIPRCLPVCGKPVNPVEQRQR
Kind of assay: Anti-C1 esterase (C1r) activity (hydrolysis of AAME). It is filed as biochemical. The note with it: AAME hydrolysis; read-out: Anti-C1 activity, C1r ID50. As to the method:
The anti-Cl esterase ([…]) activity was determined according to the method of Okamura et al. [K. Okamura, M. Muramatsu and S. Fujii, Biochem. Biophys.

Chain of Plasmin (P00747 581-810 limits assumed, species assumed): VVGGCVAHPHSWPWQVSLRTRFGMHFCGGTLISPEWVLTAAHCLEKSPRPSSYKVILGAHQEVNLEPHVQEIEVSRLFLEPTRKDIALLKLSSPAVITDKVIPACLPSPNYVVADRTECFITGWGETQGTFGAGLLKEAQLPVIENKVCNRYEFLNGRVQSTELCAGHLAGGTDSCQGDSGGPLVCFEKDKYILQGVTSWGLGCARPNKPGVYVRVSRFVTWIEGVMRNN
Chain of Plasmin (P00747 97-580 partner limits assumed, species assumed): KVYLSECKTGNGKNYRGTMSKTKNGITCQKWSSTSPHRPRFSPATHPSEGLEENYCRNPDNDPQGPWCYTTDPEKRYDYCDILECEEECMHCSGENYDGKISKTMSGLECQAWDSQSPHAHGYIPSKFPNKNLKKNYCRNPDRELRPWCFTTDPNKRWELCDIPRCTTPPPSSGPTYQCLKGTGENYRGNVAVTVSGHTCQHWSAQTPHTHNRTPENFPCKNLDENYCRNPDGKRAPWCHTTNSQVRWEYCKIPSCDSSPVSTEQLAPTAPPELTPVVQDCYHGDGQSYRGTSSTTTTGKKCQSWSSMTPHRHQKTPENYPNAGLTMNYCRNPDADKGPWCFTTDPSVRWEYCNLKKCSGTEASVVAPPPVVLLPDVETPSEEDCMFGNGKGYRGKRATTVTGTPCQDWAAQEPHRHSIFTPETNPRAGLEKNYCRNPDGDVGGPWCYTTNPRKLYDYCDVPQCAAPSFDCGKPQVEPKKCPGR

For the compound `N=C(N)c1ccc2cc(OC(=O)c3ccccc3)ccc2c1` [Compound 1, 6-amidino-2-naphthyl benzoate], the IC50 at Thrombin worked out at 5 µM; on C1s, 0.1 µM; at Trypsin, 3 µM; with Kallikrein, 30 µM; on Plasmin, 2 µM; at C1r, 0.4 µM. Further, the “Inhibition of complement mediated hemolysis (%)” value (“Inhibition … (%)” below) in assay [1] (1 × 10^-4) is 100%; in assay [1] (1 × 10^-5), 100%; in assay [1] (1 × 10^-6) it was 91%; in assay [1] (1 × 10^-7) it was 27%.

Turning to `Cc1ccccc1C(=O)Oc1ccc2cc(C(=N)N)ccc2c1` [Compound 2, 6-amidino-2-naphthyl 2-methylbenzoate], the IC50 on Thrombin, in the assay on Kallikrein and on Plasmin was above 10 µM in each case. Further, the inhibition (in general, the drop in the measured response relative to a control, in per cent) at 10 µM on Trypsin (at 1×10^-5 M, read-out: Trypsin percentage inhibition) worked out at 38%.

In the case of `CC(C)(C)c1ccc(C(=O)Oc2ccc3cc(C(=N)N)ccc3c2)cc1` [Compound 5], the IC50 on Thrombin worked out at 3 µM; at Trypsin, 0.3 µM; in the assay with Kallikrein, 9 µM; at Plasmin, 2 µM.

On to `COC(=O)c1ccc(C(=O)Oc2ccc3cc(C(=N)N)ccc3c2)cc1` [Compound 14], for which the IC50 stood at 3 µM on Thrombin; 6 µM at C1s; 0.3 µM at Trypsin; 0.5 µM at Plasmin; 7 µM on C1r. Further, the “Inhibition … (%)” value in assay [1] (1 × 10^-4) is 61%; in assay [1] (1 × 10^-5), 15%; in assay [1] (1 × 10^-6), 1%; in assay [1] (1 × 10^-7) it was 3%.

Take `N=C(N)c1ccc2cc(OC(=O)c3ccc(CNC(=O)OCc4ccccc4)cc3)ccc2c1` [Compound 21, 6-amidino-2-naphthyl 4-benzyloxycarbonylaminomethylbenzoate]: the IC50 on Thrombin was above 10 µM; on C1s it was 0.5 µM; on Trypsin it was 0.6 µM; with Kallikrein it was 10 µM; at C1r, 0.7 µM. The “Inhibition … (%)” value in assay [1] (1 × 10^-4) was 0%; in assay [1] (1 × 10^-5), 66%; in assay [1] (1 × 10^-6), 14%; in assay [1] (1 × 10^-7), 0%.

As for `CN(C)c1cccc(C(=O)Oc2ccc3cc(C(=N)N)ccc3c2)c1` [Compound 23, 6-amidino-2-naphthyl 3-dimethylaminobenzoate], the IC50 at Thrombin was 10 µM; on Trypsin, 20 µM; in the assay with Kallikrein, 100 µM; at Plasmin, 20 µM.

With `CN(C)c1ccc(C(=O)Oc2ccc3cc(C(=N)N)ccc3c2)cc1` [Compound 24, 6-amidino-2-naphthyl 4-dimethylaminobenzoate], the IC50 on Thrombin turned out to be 60 µM; at Trypsin it was 0.3 µM; in the assay on Kallikrein it was 50 µM; on Plasmin it was 20 µM.

Take `CC(=O)Nc1ccc(C(=O)Oc2ccc3cc(C(=N)N)ccc3c2)cc1` [Compound 25, 6-amidino-2-naphthyl 4-acetylaminobenzoate]: the IC50 is 60 µM on Thrombin, 0.4 µM at C1s, 100 µM with Kallikrein and 0.7 µM at C1r. Also, the “Inhibition … (%)” value stood at 64% in assay [1] (1 × 10^-4), 26% in assay [1] (1 × 10^-5), 1% in assay [1] (1 × 10^-6) and 0% in assay [1] (1 × 10^-7).

As to `N=C(N)c1ccc2cc(OC(=O)Cc3ccc(Cl)cc3)ccc2c1` [Compound 44], the IC50 at C1s and at C1r was above 10 µM in each case. In addition, the “Inhibition … (%)” value in assay [1] (1 × 10^-4) worked out at 89%; in assay [1] (1 × 10^-5) it was 21%; in assay [1] (1 × 10^-6), 0%; in assay [1] (1 × 10^-7) it was 18%.

As for `Cc1ccc(CCC(=O)Oc2ccc3cc(C(=N)N)ccc3c2)cc1` [Compound 48], on Thrombin, the inhibition at 10 µM turned out to be 43%. The IC50 was 5 µM on Trypsin, above 10 µM in the assay with Kallikrein and 2 µM on Plasmin.

For the compound `CC(=O)Oc1ccc(CCC(=O)Oc2ccc3cc(C(=N)N)ccc3c2)cc1` [Compound 50], the “Inhibition … (%)” value in assay [1] (1 × 10^-4) was found to be 49%; in assay [1] (1 × 10^-5) it was 16%; in assay [1] (1 × 10^-6), 1%; in assay [1] (1 × 10^-7) it was 11%.

In the case of `N=C(N)c1ccc2cc(OC(=O)CCCc3ccccc3)ccc2c1` [Compound 54, 6-amidino-2-naphthyl 4-phenylbutyrate], the IC50 at C1s and at C1r was above 10 µM each time. Also, the “Inhibition … (%)” value was found to be 12% in assay [1] (1 × 10^-4), 10% in assay [1] (1 × 10^-5), 10% in assay [1] (1 × 10^-6) and 4% in assay [1] (1 × 10^-7).

Take `Cc1ccc(C=CC(=O)Oc2ccc3cc(C(=N)N)ccc3c2)cc1` [Compound 58]: the inhibition at 10 µM at Thrombin was 22%. The IC50 at Trypsin is 2 µM; in the assay with Kallikrein it was above 10 µM; on Plasmin, 0.5 µM.

As to `COc1ccc(C=CC(=O)Oc2ccc3cc(C(=N)N)ccc3c2)cc1OC` [Compound 59], the IC50 on Thrombin was found to be 6 µM; on Trypsin it was 0.1 µM; in the assay on Kallikrein it was 1 µM; at Plasmin it was 0.6 µM.

For `N=C(N)c1ccc2cc(OC(=O)C=Cc3ccc([N+](=O)[O-])cc3)ccc2c1` [Compound 62, 6-amidino-2-naphthyl 4-nitrocinnamate], the inhibition at 10 µM on Thrombin was found to be 24%. In addition, the IC50 on Trypsin was 3 µM; with Kallikrein, above 10 µM; on Plasmin, 2 µM.

In the case of `N=C(N)c1ccc2cc(OC(=O)COc3ccc(Cl)cc3Cl)ccc2c1` [Compound 70], the IC50 on C1s and at C1r was above 10 µM in each case. Further, the “Inhibition … (%)” value in assay [1] (1 × 10^-4) was determined as 26%; in assay [1] (1 × 10^-5) it was 1%; in assay [1] (1 × 10^-6), 0%; in assay [1] (1 × 10^-7) it was 2%.
